In patent publication US8871934B2, “Fluorene compound and pharmaceutical use thereof” (Japan Tobacco Inc., priority 2008, dated 2014):

Molecular target: human PDHK2 (hPDHK2) (Homo sapiens (Human), UniProt Q15119)
Assay: Inhibitory action of PDHK activity in vitro (kinase reaction, residual PDH activity measured)
Format: biochemical
Conditions: PDHK inhibitory activity, class symbol of IC50

| Compound | IC50 [nM] |
| --- | --- |
| O=C(c1cccc2c1-c1ccccc1C2(O)C(F)(F)F)N1CC1 (centres unmarked) [compound 111] | > 1000 |
| OC1(C(F)(F)F)c2ccccc2-c2ccc(-c3ccccn3)cc21 (centres unmarked) [compound 112] | > 1000 |
| OC1(C(F)(F)F)c2ccccc2-c2c(Br)cccc21 (centres unmarked) [compound 113] | > 1000 |
| O=C(c1cc(Br)c2c(c1)C(O)(C(F)(F)F)c1ccccc1-2)N1CCC1 (centres unmarked) [compound 114] | < 100 |
| COC(=O)COC1CN(C(=O)c2ccc3c(c2)C(O)(C(F)(F)F)c2ccccc2-3)C1 (centres unmarked) [compound 115] | 100 to 1000 |
| NC(=O)COC1CN(C(=O)c2ccc3c(c2)C(O)(C(F)(F)F)c2ccccc2-3)C1 (centres unmarked) [compound 116] | 100 to 1000 |
| CNC(=O)COC1CN(C(=O)c2ccc3c(c2)C(O)(C(F)(F)F)c2ccccc2-3)C1 (centres unmarked) [compound 117] | 100 to 1000 |
| CN(C)C(=O)COC1CN(C(=O)c2ccc3c(c2)C(O)(C(F)(F)F)c2ccccc2-3)C1 (centres unmarked) [compound 118] | 100 to 1000 |
| O=C(c1ccc2c(c1)C(O)(C(F)(F)F)c1ccccc1-2)C1CCC1 (centres unmarked) [compound 119] | > 1000 |
| COC(=O)C1CN(C(=O)c2ccc3c(c2)C(O)(C(F)(F)F)c2ccccc2-3)C1 (centres unmarked) [compound 120] | 100 to 1000 |
| O=C(O)C1CN(C(=O)c2ccc3c(c2)C(O)(C(F)(F)F)c2ccccc2-3)C1 (centres unmarked) [compound 121] | > 1000 |
| CC(=O)c1cc(C(=O)N2CCC2)cc2c1-c1ccccc1C2(O)C(F)(F)F (centres unmarked) [compound 122] | < 100 |
| NC(=O)C1CN(C(=O)c2ccc3c(c2)C(O)(C(F)(F)F)c2ccccc2-3)C1 (centres unmarked) [compound 123] | 100 to 1000 |
| CNC(=O)C1CN(C(=O)c2ccc3c(c2)C(O)(C(F)(F)F)c2ccccc2-3)C1 (centres unmarked) [compound 124] | 100 to 1000 |
| CN(C)C(=O)C1CN(C(=O)c2ccc3c(c2)C(O)(C(F)(F)F)c2ccccc2-3)C1 (centres unmarked) [compound 125] | 100 to 1000 |
| OC1(C(F)(F)F)c2ccccc2-c2c(-c3ccccc3)cccc21 (centres unmarked) [compound 126] | > 1000 |
| O=C(c1ccc2c(c1)C(O)(C(F)(F)F)c1ccccc1-2)N1CCOCC1 (centres unmarked) [compound 127] | > 1000 |
| OC1(C(F)(F)F)c2ccccc2-c2ccc(OC3CCC3)cc21 (centres unmarked) [compound 128] | > 1000 |
| OC1(C(F)(F)F)c2ccccc2-c2ccc(-c3cccc(F)c3)cc21 (centres unmarked) [compound 129] | 100 to 1000 |

| Compound | IC50 [nM] |
| --- | --- |
| COC(=O)Nc1cccc2c1-c1ccccc1C2(O)C(F)(F)F (centres unmarked) [compound 130] | > 1000 |
| OC1(C(F)(F)F)c2ccccc2-c2c(-c3ncco3)cccc21 (centres unmarked) [compound 131] | > 1000 |
| OC1(C(F)(F)F)c2ccccc2-c2ccc(-c3cccc(Cl)c3)cc21 (centres unmarked) [compound 132] | 100 to 1000 |
| CN(C)C1CN(C(=O)c2ccc3c(c2)C(O)(C(F)(F)F)c2ccccc2-3)C1 (centres unmarked) [compound 133] | > 1000 |
| OC1(C(F)(F)F)c2ccccc2-c2c(-c3ccccn3)cccc21 (centres unmarked) [compound 134] | > 1000 |
| Cc1cccc(-c2ccc3c(c2)C(O)(C(F)(F)F)c2ccccc2-3)c1 (centres unmarked) [compound 137] | > 1000 |
| C=C(C)c1cccc2c1-c1ccccc1C2(O)C(F)(F)F (centres unmarked) [compound 138] | > 1000 |
| OC1(C(F)(F)F)c2ccccc2-c2c(-c3ccncc3)cccc21 (centres unmarked) [compound 139] | > 1000 |
| OC1(C(F)(F)F)c2ccccc2-c2c(-c3nnco3)cccc21 (centres unmarked) [compound 140] | > 1000 |
| N#Cc1cc(C(=O)N2CCC2)cc2c1-c1ccccc1C2(O)C(F)(F)F (centres unmarked) [compound 141] | < 100 |
| Cc1noc(-c2cccc3c2-c2ccccc2C3(O)C(F)(F)F)n1 (centres unmarked) [compound 142] | 100 to 1000 |
| CS(=O)(=O)c1cccc2c1-c1ccccc1C2(O)C(F)(F)F (centres unmarked) [compound 143] | > 1000 |
| OC1(C(F)(F)F)c2ccccc2-c2ccc(-c3cccs3)cc21 (centres unmarked) [compound 144] | > 1000 |
| OC1(C(F)(F)F)c2ccccc2-c2ccc(-c3ccsc3)cc21 (centres unmarked) [compound 145] | > 1000 |
| OC1(C(F)(F)F)c2ccccc2-c2c(-c3cccnc3)cccc21 (centres unmarked) [compound 146] | 100 to 1000 |
| O=C1CCCN1c1ccc2c(c1)C(O)(C(F)(F)F)c1ccccc1-2 (centres unmarked) [compound 147] | > 1000 |
| OC1(C(F)(F)F)c2ccccc2-c2ccc(N3CCCCC3)cc21 (centres unmarked) [compound 148] | > 1000 |
| OC1(C(F)(F)F)c2ccccc2-c2ccc(-c3ccccc3F)cc21 (centres unmarked) [compound 149] | > 1000 |

Same assay, conditions: read-out: PDHK inhibitory activity IC50

| Compound | IC50 [nM] |
| --- | --- |
| O=C(c1cccc2c1-c1ccccc1C2(O)C(F)(F)F)N1CC1 (centres unmarked) [compound 111] | > 10000 |
| OC1(C(F)(F)F)c2ccccc2-c2ccc(-c3ccccn3)cc21 (centres unmarked) [compound 112] | 1230 |
| OC1(C(F)(F)F)c2ccccc2-c2c(Br)cccc21 (centres unmarked) [compound 113] | 1110 |
| O=C(c1cc(Br)c2c(c1)C(O)(C(F)(F)F)c1ccccc1-2)N1CCC1 (centres unmarked) [compound 114] | 51 |
| COC(=O)COC1CN(C(=O)c2ccc3c(c2)C(O)(C(F)(F)F)c2ccccc2-3)C1 (centres unmarked) [compound 115] | 417 |
| NC(=O)COC1CN(C(=O)c2ccc3c(c2)C(O)(C(F)(F)F)c2ccccc2-3)C1 (centres unmarked) [compound 116] | 601 |
| CNC(=O)COC1CN(C(=O)c2ccc3c(c2)C(O)(C(F)(F)F)c2ccccc2-3)C1 (centres unmarked) [compound 117] | 909 |
| CN(C)C(=O)COC1CN(C(=O)c2ccc3c(c2)C(O)(C(F)(F)F)c2ccccc2-3)C1 (centres unmarked) [compound 118] | 839 |
| O=C(c1ccc2c(c1)C(O)(C(F)(F)F)c1ccccc1-2)C1CCC1 (centres unmarked) [compound 119] | 1000 |
| COC(=O)C1CN(C(=O)c2ccc3c(c2)C(O)(C(F)(F)F)c2ccccc2-3)C1 (centres unmarked) [compound 120] | 174 |
| O=C(O)C1CN(C(=O)c2ccc3c(c2)C(O)(C(F)(F)F)c2ccccc2-3)C1 (centres unmarked) [compound 121] | 3680 |
| CC(=O)c1cc(C(=O)N2CCC2)cc2c1-c1ccccc1C2(O)C(F)(F)F (centres unmarked) [compound 122] | 49 |
| NC(=O)C1CN(C(=O)c2ccc3c(c2)C(O)(C(F)(F)F)c2ccccc2-3)C1 (centres unmarked) [compound 123] | 877 |
| CNC(=O)C1CN(C(=O)c2ccc3c(c2)C(O)(C(F)(F)F)c2ccccc2-3)C1 (centres unmarked) [compound 124] | 736 |
| CN(C)C(=O)C1CN(C(=O)c2ccc3c(c2)C(O)(C(F)(F)F)c2ccccc2-3)C1 (centres unmarked) [compound 125] | 227 |
| OC1(C(F)(F)F)c2ccccc2-c2c(-c3ccccc3)cccc21 (centres unmarked) [compound 126] | > 10000 |
| O=C(c1ccc2c(c1)C(O)(C(F)(F)F)c1ccccc1-2)N1CCOCC1 (centres unmarked) [compound 127] | > 10000 |
| OC1(C(F)(F)F)c2ccccc2-c2ccc(OC3CCC3)cc21 (centres unmarked) [compound 128] | 2400 |
| OC1(C(F)(F)F)c2ccccc2-c2ccc(-c3cccc(F)c3)cc21 (centres unmarked) [compound 129] | 864 |

| Compound | IC50 [nM] |
| --- | --- |
| COC(=O)Nc1cccc2c1-c1ccccc1C2(O)C(F)(F)F (centres unmarked) [compound 130] | > 10000 |
| OC1(C(F)(F)F)c2ccccc2-c2c(-c3ncco3)cccc21 (centres unmarked) [compound 131] | > 10000 |
| OC1(C(F)(F)F)c2ccccc2-c2ccc(-c3cccc(Cl)c3)cc21 (centres unmarked) [compound 132] | 694 |
| CN(C)C1CN(C(=O)c2ccc3c(c2)C(O)(C(F)(F)F)c2ccccc2-3)C1 (centres unmarked) [compound 133] | 2500 |
| OC1(C(F)(F)F)c2ccccc2-c2c(-c3ccccn3)cccc21 (centres unmarked) [compound 134] | > 10000 |
| Cc1cccc(-c2ccc3c(c2)C(O)(C(F)(F)F)c2ccccc2-3)c1 (centres unmarked) [compound 137] | 1010 |
| C=C(C)c1cccc2c1-c1ccccc1C2(O)C(F)(F)F (centres unmarked) [compound 138] | > 10000 |
| OC1(C(F)(F)F)c2ccccc2-c2c(-c3ccncc3)cccc21 (centres unmarked) [compound 139] | > 10000 |
| OC1(C(F)(F)F)c2ccccc2-c2c(-c3nnco3)cccc21 (centres unmarked) [compound 140] | 2400 |
| N#Cc1cc(C(=O)N2CCC2)cc2c1-c1ccccc1C2(O)C(F)(F)F (centres unmarked) [compound 141] | 77 |
| Cc1noc(-c2cccc3c2-c2ccccc2C3(O)C(F)(F)F)n1 (centres unmarked) [compound 142] | 543 |
| CS(=O)(=O)c1cccc2c1-c1ccccc1C2(O)C(F)(F)F (centres unmarked) [compound 143] | > 10000 |
| OC1(C(F)(F)F)c2ccccc2-c2ccc(-c3cccs3)cc21 (centres unmarked) [compound 144] | 1120 |
| OC1(C(F)(F)F)c2ccccc2-c2ccc(-c3ccsc3)cc21 (centres unmarked) [compound 145] | 1380 |
| OC1(C(F)(F)F)c2ccccc2-c2c(-c3cccnc3)cccc21 (centres unmarked) [compound 146] | 213 |
| O=C1CCCN1c1ccc2c(c1)C(O)(C(F)(F)F)c1ccccc1-2 (centres unmarked) [compound 147] | 1730 |
| OC1(C(F)(F)F)c2ccccc2-c2ccc(N3CCCCC3)cc21 (centres unmarked) [compound 148] | 8450 |
| OC1(C(F)(F)F)c2ccccc2-c2ccc(-c3ccccc3F)cc21 (centres unmarked) [compound 149] | 1220 |
